Measured values published in patent publication US10285956B2, “N-(2-aminoethyl) ethanolamine (AEEA) and analogs to treat hypertrophic scarring and liposomal topical delivery” (BOARD OF REGENTS, THE UNIVERSITY OF TEXAS SYSTEM, priority 2016, dated 2019).

Assays:
collagen type 1 = assay: Collagen type 1 extractability, sequential denaturing ECM extraction (RIPA then urea), Western blot densitometry; format: cell-based, human; details: for increased extractability of collagen type 1 (by densitometry): 14 day exposure, HS fibroblasts, urea lysis buffer
Experimental: Preparation of Decellularized Matrix Scaffold, or Extracellular Matrix (ECM): The methods for isolation and characterization of the matrix of skin cells (fibroblastic-type cells) derived from normal (N Fb) and those derived from hypertrophic scar (HS Fb), as well as an embryonic fibroblast (E Fb) as a further control for comparison by the present inventors; these basic methods can be followed in the characterization of mechanism(s) of HS. Briefly, fibroblast-like cells are cultured on 13 mm diameter Nunc™ Thermanox™ Coverslips (Catalog #174950) in 24-well cell culture plates in DMEM supplemented with 13% FCS, antibiotics, and 50 μg/ml of sodium ascorbate; cells are seeded at the number that cell density reaches 70% confluence in 24 hours. AEEA treatments start before the formation of ECM, at the second day post passage. Sodium ascorbate, which is the crucial cofactor of lysyl oxidase (LOX), lysyl hydroxylase, and proline hydroxylase (to be assayed), is added daily, 5 days/week, to stimulate ECM assembly. AEEA is changed with culture media (every 3 days). […] The next day, water is replaced with PBS, and the preparation is ready for AFM, or other biochemical, molecular or proteomic studies as described below. […]
Total collagen content of the matrix can be determined by established extraction procedures and a dye-binding method based on the specific binding of Sirius Red dye to the [Gly-X-Y]n helical structure of collagen types I to XIV. […] Elastin can be determined in separate samples as soluble tropoelastin utilizing a dye binding assay (Accurate Chemical Corp., Westbury, N.Y.) and as insoluble elastin by repeated salt and alkali extraction as previously described. The effects of AEEA on collagen and other extra-cellular protein abundances can be further evaluated by using the normal human neonatal primary dermal fibroblast (ATCC® PCS-201-010™), and normal skin fibroblasts (NS Fb), and also hypertrophic scar fibroblasts (HS Fb) derived from skin of the other clinically evident HS developed by patients. […]

triple helical collagen = assay: Native (non-denaturing) gel of collagen tertiary structure (triple helix) in HS cells; format: cell-based, human; details: for TGFβ1 effect: increase in triple helical collagen: TGFβ1 exposure last 4 days
Experimental: Native lysis buffer uses digitonin; see text. […] TGFβ1 treatment (4 days) increases mature (triple helical) structure, while changing monomer ratio, an effect that is mimicked by AEEA-alone at 25 μM but not at 50 μM (see text and FIG. 7 re: fibronectin). TGFβ1 effect appears attenuated by 50 μM AEEA.
PGK1/2 is fraction marker. […] These collagen aberrations were then examined with non-denaturing, or “native” gels (FIG. 5). “Native” or “non-denaturing” gel electrophoresis is run in non-denaturing conditions, i.e., in the absence of any charged denaturing agents, such as SDS; and reducing agent. Native gel allows for the protein's natural structure to be maintained. Thus, the physical size of the folded or assembled complex affects mobility. In SDS-PAGE, the electrophoretic mobility of proteins depends primarily on their molecular mass alone; in native gel the mobility also depends on both the protein's charge and its hydrodynamic size. The native lysis buffer used contains: 50 mM Tris-HCl, pH 7.5; 150 mM NaCl and 1% Digitonin.
However this finding is not present at 50 μM AEEA. Following 25 μM AEEA alone, a 6-fold increase was seen. The triple helical structure in the presence of both AEEA and TGFβ1 appeared relatively diminished.
Total collagen content of the matrix can be determined by established extraction procedures and a dye-binding method based on the specific binding of Sirius Red dye to the [Gly-X-Y]n helical structure of collagen types I to XIV. The method has virtually an exact correlation with analytic methods for hydroxyproline content. Elastin can be determined in separate samples as soluble tropoelastin utilizing a dye binding assay (Accurate Chemical Corp., Westbury, N.Y.) and as insoluble elastin by repeated salt and alkali extraction as previously described. The effects of AEEA on collagen and other extra-cellular protein abundances can be further evaluated by using the normal human neonatal primary dermal fibroblast (ATCC® PCS-201-010™), and normal skin fibroblasts (NS Fb), and also hypertrophic scar fibroblasts (HS Fb) derived from skin of the other clinically evident HS developed by patients. Time course and dose response studies can also be used to test the effects of AEEA on stability of those proteins, by Western blotting, to see if it is degraded more quickly in the AEEA treated cells. For Western Blot, cultured N Fb and FS Fb grown and treated with AEEA as described above can be gently washed with 4° C. pre-chilled PBS. The plate is then placed on the surface of a −20° C. ice block. […] The protein concentrations of the samples extracted with RIPA measured by with the DC™ protein assay kit (Bio-Rad Laboratories, Inc. USA), while the protein of remaining extracts is quantitated with the BCA protein assay (Pierce). […]

α-SMA = α-SMA Western blot in normal (N) and HS skin fibroblasts; format: cell-based, human
Source text: GAPDH is loading control. […] GAPDH is loading control. […] The effects of AEEA on collagen and other extra-cellular protein abundances can be further evaluated by using the normal human neonatal primary dermal fibroblast (ATCC® PCS-201-010™), and normal skin fibroblasts (NS Fb), and also hypertrophic scar fibroblasts (HS Fb) derived from skin of the other clinically evident HS developed by patients. Time course and dose response studies can also be used to test the effects of AEEA on stability of those proteins, by Western blotting, to see if it is degraded more quickly in the AEEA treated cells. For Western Blot, cultured N Fb and FS Fb grown and treated with AEEA as described above can be gently washed with 4° C. pre-chilled PBS. The plate is then placed on the surface of a −20° C. ice block. […] Therefore, samples are serially extracted with RIPA buffer, urea extraction buffer and then 0.5 M acetic acid; or, with native sample buffer, as described above. […] The protein concentrations of the samples extracted with RIPA measured by with the DC™ protein assay kit (Bio-Rad Laboratories, Inc. USA), while the protein of remaining extracts is quantitated with the BCA protein assay (Pierce). […] Signals are recorded on film (CL-XPousure™ film, Thermo Scientific) by using ECL™ Western blot detection reagents (Amersham Biosciences, RPN2209).

fibronectin = assay: Fibronectin extractability, denaturing gel following digitonin, HS cells; format: cell-based, human
Experimental: Increased extractability of fibronectin induced by TGFβ1, with little effect of AEEA at 25 or 50 μM. However, the TGFβ1 enhancement of fibronectin is blocked by 50 μM AEEA (last two lanes). Fibronectin, a critical cell adhesion molecule, is implicated in HS. […] See text for densitometric analysis, FIGS. 3-7.

Integrins αV and β5 = Integrins αV and β5 extractability, denaturing gel, HS cells; format: cell-based, human
Source text: (§1) In the native gel, intensities of integrin bands are not changed in a parallel fashion to that in denaturing gels, which may be the result of intramolecular alterations.
(§2) […] In FIG. 6, the effect of AEEA on fibronectin, integrins αV and β5, and N-cadherin is examined, which have all been implicated in the development of HS. In a denaturing gel, TGFβ1 and AEEA exposure has a similar effect of increasing extractability of integrins and, to some extent, N-cadherin. […] Most interesting are interactions between AEEA and TGFβ1 with regard to HS cell expression of fibronectin, a critical molecule in cell adhesion, growth, migration, and differentiation, which is implicated in HS.

N-Cadherin = assay: Extractable N-Cadherin, denaturing gel, HS cells; format: cell-based, human; details: especially with both AEEA and TGFβ1
Source text: as §1, §2

skin fibroblasts = assay: Scanning EM of interstitial matrix (skin fibroblasts removed); format: cell-based, human; details: AEEA 5, 10 mM, cells removed
Experimental: Briefly, fibroblast-like cells are cultured on 13 mm diameter Nunc™ Thermanox™ Coverslips (Catalog #174950) in 24-well cell culture plates in DMEM supplemented with 13% FCS, antibiotics, and 50 μg/ml of sodium ascorbate; cells are seeded at the number that cell density reaches 70% confluence in 24 hours. AEEA treatments start before the formation of ECM, at the second day post passage. Sodium ascorbate, which is the crucial cofactor of lysyl oxidase (LOX), lysyl hydroxylase, and proline hydroxylase (to be assayed), is added daily, 5 days/week, to stimulate ECM assembly. AEEA is changed with culture media (every 3 days). […] After 14 days of culture, the resulting tissue sheets are gently rinsed twice with PBS, and then incubated in sterile deionized water for 20 minutes at 4° C. to lyse the cells with hypotonic condition (decellularization). Matrix is rinsed free of cell debris, and ECM samples are kept overnight at 4° C.

[1] = Rat model of 30% scald burn, localized injections, adverse effect on skin or burn wound healing; format: in vivo
Experimental: To assess the possibility of an adverse AEEA effect on skin or burn wound healing, a rat model of 30% scald burn was utilized. AEEA was used to treat burns (or unburned skin as sham) by localized multiple injections (5 of 0.1 ml) of AEEA at 5.0 and 50.0 mM concentrations, which are 100- or 1,000-fold of the effective concentration in our cell culture, respectively, but is only 10% concentration of the rat DAA experiments by gavage.

[2] = in utero exposure; cited from earlier work

Compound	increased extractability of collagen type 1 (by densitometry) (collagen type 1; 25 μM AEEA)	increased extractability of collagen type 1 (by densitometry) (collagen type 1; 100 μM AEEA)	increase of Collagen I extractability, densitometrically (collagen type 1; human burn wound fibroblasts (from HS) cultured in 50 μM compound)	increase in triple helical collagen (triple helical collagen; 25 μM AEEA alone, 7 days, native gel)	TGFβ1 effect on triple helical collagen in presence of AEEA (triple helical collagen; 50 μM AEEA plus TGFβ1, 7 days)	α-SMA expression (α-SMA; 1-10 mM AEEA, 14 days, normal (N) and HS skin fibroblasts)	α-SMA expression (α-SMA; low (μM) AEEA doses, 14 day exposure, HS fibroblasts)	TGFβ1 enhancement of fibronectin in presence of AEEA (fibronectin; 50 μM AEEA plus TGFβ1, HS cells)	effect on extractability of fibronectin (fibronectin; AEEA at 25 or 50 μM alone, HS cells)	effect on Integrins αV and β5 (extractability) (Integrins αV and β5)	Extractable N-Cadherin (N-Cadherin)	appearance of interstitial matrix by SEM (skin fibroblasts)	localized skin or systemic effects ([1]; 5 injections of 0.1 ml at 5.0 and 50.0 mM, burns or unburned skin)	histology, AEEA sites vs vehicle (PBS buffer) sites ([1]; normal unburned skin or full thickness burns, 7 days post-burn)	finding in rat pups born to mother rats exposed in utero [2]	TGFβ1 effect: increase in triple helical collagen (triple helical collagen; 0.0 (control) AEEA, 7 days)	TGFβ1 effect: increase in triple helical collagen (triple helical collagen; with 25 μM AEEA, 7 days)	increased extractability of fibronectin (fibronectin; TGFβ1 alone, denaturing gel, HS cells)
NCCNCCO [AEEA, N-(2-aminoethyl) ethanolamine]	2 fold	5 fold	3 fold	6 fold	not present	loss of α-SMA	not down-regulated	blocked	little effect	increasing	increased	marked irregularities	no untoward localized skin or systemic effects	no qualitative or quantitative differences	dramatic dissecting aortic aneurysms	–	–	–
TGFβ1: transforming growth factor-β1, regulator of scarring used to treat HS cells [reference compound]	–	–	–	–	–	–	–	–	–	increasing	increased	–	–	–	–	10 fold	16 fold	5 fold
